Key:
Format in all cases: cell-based, human
[1] = system: SK-MEL-28 cells; assay: Cell proliferation (cell counting) of melanoma cells treated with peptides; conditions: for Proliferation, result in words (summary of Table 2) / Cell Count 7 days: SK-MEL-28; for Proliferation, result in words (summary of Table 2): 10 μM; for Cell Count 7 days: peptide 10 μM in media, start count 10; for Growth of melanoma cells in vitro, result in words (library screening): screening of peptide libraries using SK-MEL-28
Description: (§1) Human melanoma cell lines SK-MEL-28 and WM-266-4 were obtained from the American Type Culture Collection (ATCC; Manassas, Va.; SK-MEL-28 deposited by T. Takehashi and subject to release terms set by The Memorial Sloan-Kettering Cancer Center; WM-266-4 deposited by M. Herlyn). Cells were cultured according to recommendations of ATCC (DMEM, 10% FCS, penicillin+streptomycin) and used in experiments after two passages in the laboratory. Cells were grown in 24 well plates, each treatment in triplicates. Cells were plated 16 hours prior treatments started. Peptides were added to the media, and media was changed every day during 7 day experiment. CPP concentration was 10 μM.
(§2) For cell counting, cells were trypsinized (0.25% Trypsin, 2 mM EDTA) in Ca+2, Mg+2 free PBS. Cells were precipitated and resuspended in 100 μl of PBS, and 5 μl were removed for counting
(§3) Effects of peptide drug candidates BAF57 P12 and TRAP100 P05 on cell proliferation and apoptosis were analyzed using human melanoma cell lines SK-MEL-28 and WM 266-4. Therapeutic peptides were added at a concentration of 10 μM directly to culture media. Internalization and translocation of the therapeutic peptide(s) into the cell nucleus was studied using fluorescein labeled peptides. […] As controls we used scrambled peptides. […] Simultaneous incubation of melanoma cells with both peptides caused complete inhibition of proliferation and induction of apoptosis in almost all treated cells.

[2] = system: WM 266-4 cells; assay: as above; conditions: for Proliferation, result in words (summary of Table 2): 10 μM; for Cell Count 7 days: peptide 10 μM in media, start count 10, 7 days
Description: as §1, §2, §3

[3] = system: SK-MEL-28 cells; assay: Apoptosis (Annexin V-Cy3 kit) of melanoma cells treated with peptides; conditions: for Apoptosis, result in words (summary of Table 2) / Apoptosis 7 days/%: SK-MEL-28; for Apoptosis, result in words (summary of Table 2): 10 μM; for Apoptosis 7 days/%: peptide 10 μM; for Apoptosis of melanoma cells in vitro, result in words (library screening): screening of peptide libraries using SK-MEL-28
Description: as §1
(§4) Apoptosis was analyzed using Biovision Annexin V-Cy3 Apoptosis Kit according to manufacturer's protocols.
as §3

[4] = system: WM 266-4 cells; assay: as above; conditions: for Apoptosis, result in words (summary of Table 2): 10 μM; for Apoptosis 7 days/%: peptide 10 μM
Description: as §1, §4, §3

| Sequence | Proliferation, result in words (summary of Table 2) [1] | Cell Count 7 days [1] | Growth of melanoma cells in vitro, result in words (library screening) [1] | Proliferation, result in words (summary of Table 2) [2] | Cell Count 7 days [2] | Apoptosis, result in words (summary of Table 2) [3] | Apoptosis 7 days/% [3] | Apoptosis of melanoma cells in vitro, result in words (library screening) [3] | Apoptosis, result in words (summary of Table 2) [4] | Apoptosis 7 days/% [4] |
| --- | --- | --- | --- | --- | --- | --- | --- | --- | --- | --- |
| PKKRKVRRRRRRRNDRLSDGDSKYSQTSHKLVQLL (listed as Homo sapiens) [BAF57 P12, NLS-CPP-interfering peptide targeting chromatin modifying complex containing cancer specific isoform of BAF57] | suppress significantly proliferation | 16 | inhibit growth of melanoma cells | suppress significantly proliferation | 17 | induce apoptosis | 65% | stimulate apoptosis | induce apoptosis | 59% |
| PKKRKVRRRRRRRPQMQQNVFQYPGAGMVPQGEANF (listed as Homo sapiens) [TRAP100 P05, NLS-CPP-interfering peptide targeting mediator complex containing cancer specific isoform of MED24/TRAP100] | suppress significantly proliferation | 12 | inhibit growth of melanoma cells | suppress significantly proliferation | 15 | induce apoptosis | 78% | stimulate apoptosis | induce apoptosis | 78% |

Reference: patent publication US7973135B2, “Compositions and methods for targeting cancer-specific transcription complexes” (Oncotx, Inc., priority 2006, dated 2011)
